Measurements taken from patent US9763969B2, “Treatment of inflammatory conditions with hyaluronan disaccharide” (CEDARS-SINAI MEDICAL CENTER, priority 2013, dated 2017).

Legend:
[1] = tested on: macrophage; assay: macrophage stimulation assay, Pam3csk4 induced TNF-α secretion; assay type: cell-based; conditions: FIG. 3C; for Pam3csk4 induced TNF-α secretion: TLR2 agonist Pam3csk4
Excerpt: (§1) FIG. 3 depicts, in accordance with an embodiment of the invention, in vitro anti-inflammatory properties of GBS hyaluronidase. A. Bio-Gel P-4 chromatography of hyaluronidase digestion mixture following digestion with GBS, bovine testis, or Streptomyces hyaluronlyticus hyaluronidase. B. Digestion of HA by GBS hyaluronidase leads to suppressed inflammation. C. HA disaccharide inhibits Pam3csk4 induced TNFα secretion.
(§2) Since bovine hyaluronidase degrades HA to 4-16mers, the inventors asked whether subsequent degradation with GBS hyaluronidase would abrogate induction of TNF-α. Indeed that is what the inventors found (FIG. 3B right). Because the major product of GBS hyaluronidase enzymatic activity is diHA (disaccharide), the inventors also evaluated the direct effect of DiHA on TNF-α secretion induced by a TLR2 agonist Pam3csk4.

[2] = tested on: bone marrow derived macrophages; assay: macrophage stimulation assay, LPS or undigested hyaluronan with hyaluronan disaccharide; assay type: cell-based, mice
Protocol: FIG. 6 depicts, in accordance with an embodiment of the invention, hyaluronan disaccharide has an anti-inflammatory property. Hyaluronan disaccharide was co-incubated with LPS or undigested hyaluronan in a macrophage stimulation assay. Hyaluronan disaccharide reduces TNF-α induction by LPS or undigested hyaluronan.
FIG. 11 depicts, in accordance with an embodiment of the invention, hyaluronan dimers are not inert. Bone marrow derived macrophages from WT mice were incubated with LPS and various concentrations of hyaluronan disaccharide. TNF-α at 18 h was measured.

[3] = tested on: TLR2; assay: TLR2 reporter construct in HEK cells; assay type: cell-based; conditions: TLR2 agonist Pam3, FIG. 12A
Protocol: (§3) FIG. 12 depicts, in accordance with an embodiment of the invention, HA disaccharide reduces TLR 2 and 4 (A), but not TLR9 (B) signaling. HEK cells were transfected with TLR2, 4, and 9 reporter constructs. The cells were incubated with TLR2 agonist (Pam3), TL4 agonist (LPS), or TLR9 agonist (Cpg) with or without hyaluronan disaccharide. Activation of the reporter genes at 4 h was measured.

[4] = tested on: TLR4; assay: TLR4 reporter construct in HEK cells; assay type: cell-based; conditions: TLR4 agonist LPS, FIG. 12A
Protocol: as §3

[5] = tested on: TLR9; assay: TLR9 reporter construct in HEK cells; assay type: cell-based; conditions: TLR9 agonist Cpg, FIG. 12B
Protocol: as §3

[6] = tested on: acute lung injury; assay: LPS acute lung injury, intratracheal; assay type: in vivo; conditions: mice, 5 micrograms LPS intratracheally, 100 micrograms disaccharide, 24 h; FIG. 14
Protocol: FIG. 14 depicts, in accordance with an embodiment of the invention, HA disaccharide decreases acute lung injury. Mice were injected intratracheally with 5 micrograms of LPS, along with PBS, Hyaluronan disaccharide (100 micrograms) or GBS enzyme (1 mg). At 24 h, the mice were sacrificed and the lungs were analyzed for histology (F&G) and cytokines and chemokines (A-E).

[7] = tested on: bone marrow derived macrophages; assay: hyaluronan predigested with GBS hyaluronidase, then stimulation of macrophages; assay type: cell-based
Excerpt: FIG. 7 depicts, in accordance with an embodiment of the invention, Group B streptococcal hyaluronidase has an anti-inflammatory property. Hyaluronan was predigested with purified GBS hyaluronidase or PBS, and then transferred to a culture of bone marrow derived macrophages.
(§4) FIG. 8 depicts, in accordance with an embodiment of the invention, GBS hyaluronidase reduces hyaluronan to dimers and dampens inflammation. HPLC profile of hyaluronan fragments generated by bovine hyaluronidase versus Group B streptococcus (GBS) hyaluronidase (A). Stimulatory hyaluronan fragments (4-16mers) were digested with GBS hyaluronidase for 4 or 15 hours (B).
as §2

[8] = hyaluronidase digestion of HA, fragment sizes (Bio-Gel P-4 chromatography / HPLC); assay type: biochemical; conditions: FIG. 3A
Excerpt: as §1, §4, §2

hyaluronan disaccharide
immunostimulatory capacity [1]: no immunostimulatory capacity | Pam3csk4 induced TNF-α secretion ([1]; listed as HA disaccharide): inhibits | Pam3csk4 induced TNF-α secretion ([1]; listed as diHA): partially inhibited | TNF-α at 18 h with LPS and various concentrations of hyaluronan disaccharide ([2]; bone marrow derived macrophages from WT mice, FIG. 11): not inert | TNF-α induction by LPS ([2]; co-incubated with LPS, FIG. 6): reduces | TNF-α induction by undigested hyaluronan ([2]; co-incubated with undigested hyaluronan, FIG. 6): reduces | TLR2 signaling (reporter gene activation at 4 h) [3]: reduces | TLR4 signaling (reporter gene activation at 4 h) [4]: reduces | TLR9 signaling (reporter gene activation at 4 h) [5]: not | acute lung injury [6]: decreases

B1: GBS hyaluronidase: purified hyaluronidase from Group B Streptococcus (S. agalactiae) that degrades HA to a disaccharide (protein, UniProt Q53591 41-984, looked up)
Hyaluronate lyase: WIDKENTADKSPIIQRTEQGQVSLSSDKGFRGAVTQKVNIDPTKKYEVKFDIETSNKAGQAFLRIMEKKDNNTRLWLSEMTSGTTNKHTLTKIYNPKLNVSEVTLELYYEKGTGSATFDNISMKAKGPKDSEHPQPVTTQIEESVNTALNKNYVFNKADYQYTLTNPSLGKIVGGILYPNATGSTTVKISDKSGKIIKEVPLSVTASTEDKFTKLLDKWNDVTIGNHVYDTNDSNMQKINQKLDETNAKNIKTIKLDSNHTFLWKDLDNLNNSAQLTATYRRLEDLAKQITNPHSTIYKNEKAIRTVKESLAWLHQNFYNVNKDIEGSANWWDFEIGVPRSITATLALMNNYFTDAEIKTYTDPIEHFVPDAGYFRKTLDNPFKALGGNLVDMGRVKIIEGLLRKDNTIIEKTSHSLKNLFTTATKAEGFYADGSYIDHTNVAYTGAYGNVLIDGLTQLLPIIQETDYKISNQELDMVYKWINQSFLPLIVKGELMDMSRGRSISREAASSHAAAVEVLRGFLRLANMSNEERNLDLKSTIKTIITSNKFYNVFNNLKSYSDIANMNKMLNDSTVATKPLKSNLSTFNSMDRLAYYNAEKDFGFALSLHSKRTLNYEGMNDENTRDWYTGDGMFYLYNSDQSHYSNHFWPTVNPYKMAGTTEKDAKREDTTKEFMSKHSKDAKEKTGQVTGTSDFVGSVKLNDHFALAAMDFTNWDRTLTAQKGWVILNDKIVFLGSNIKNTNGIGNVSTTIDQRKDDSKTPYTTYVNGKTIDLKQASSQQFTDTKSVFLESKEPGRNIGYIFFKNSTIDIERKEQTGTWNSINRTSKNTSIVSNPFITISQKHDNKGDSYGYMMVPNIDRTSFDKLANSKEVELLENSSKQQVIYDKNSQTWAVIKHDNQESLINNQFKMNKAGLYLVQKVGNDYQNVYYQPQTMTKTDQLAI
TNF-α stimulation by hyaluronan ([7]; hyaluronan predigested with purified GBS hyaluronidase or PBS, FIG. 7): significantly reduces | cytokine production ([7]; stimulatory hyaluronan fragments (4-16mers) digested for 4 or 15 hours, FIG. 8B): reduces cytokine production | induction of TNF-α by HA degraded with bovine hyaluronidase ([7]; subsequent degradation with GBS hyaluronidase, FIG. 3B right): abrogate | HA degradation product (fragment size) [8]: a single product—a disaccharide
